Laboratory results as given in US20230357179A1, “RAF KINASE INHIBITORS AND METHODS OF USE THEREOF” (Deciphera Pharmaceuticals, LLC, priority 2021, published 2023).

What was measured:
WM3629 cells = assay: WM3629 cell proliferation assay (1), resazurin, 96-well; type: cell-based; settings: inhibition of cell proliferation
Protocol: WM3629 Cell Proliferation Assay (1)
WM3629 cells (#WM3629-01-0001) are obtained from Rockland Immunochemicals Inc (Gilbertsville, PA). Briefly, cells were grown in MCDB 153 medium (Sigma, #M7403, St. Louis, MO) supplemented with 20% Leibovitz's L-15 (ThermoFisher #11415-064, Waltham, MA), 2% heat inactivated fetal bovine serum (ThermoFisher, #A3840001, Waltham, MA), 5 μg/mL Insulin (Bovine Pancreas) (Sigma, #I0516, St. Louis, MO), 1.68 mM Calcium Chloride (Sigma, #C-34006, St. Louis, MO) and 1% Penicillin/Streptomycin/L-Glutamine (ThermoFisher #10378016, Waltham, MA) at 37° C., 5% CO2, and 95% humidity. Cells are expanded until reaching 70-95% confluency at which point they are subcultured or harvested for assay use. A serial dilution of test compound is dispensed into a 96-well black clear bottom plate in triplicate. Four thousand five hundred cells are added per well in 200 μL complete growth medium in the 96-well plate. Plates are incubated for 67-72 hours at 37° C., 5% CO2, and 95% humidity. At the end of the incubation, 40 μL of a 440 μM solution of resazurin (Sigma, #199303, St. Louis, MO) in PBS is added to each well of the plate and plates are incubated for an additional 6-7 hours at 37° C., 5% CO2, and 95% humidity. Plates are read on a Synergy2 or equivalent reader (Biotek, Winooski VT) using an excitation of 540 nm and an emission of 600 nm. Data is analyzed using Prism software (GraphPad, San Diego, CA) to calculate IC50 values.

Miapaca-2 cells = assay: MiaPaca-2 combination cell proliferation assay (1) with cobimetinib, 96-well; type: cell-based; settings: inhibition of cell proliferation, read-out: MiaPaca-2 Combo (1) IC50
Protocol: MiaPaca-2 Combination Cell proliferation Assay (1)
Miapaca-2 cells (catalog #CRL-1420) are obtained from the American Type Culture Collect (ATCC, Manassas, VA). Briefly, cells were grown in DMEM supplemented with 10% characterized fetal bovine serum (Invitrogen, Carlsbad, CA), 2.5% New Zealand sourced horse serum and 1% Penicillin/Streptomycin/L-Glutamine at 37° C., 5% CO2, and 95% humidity. Cells are expanded until reaching 70-95% confluency at which point they are subcultured or harvested for assay use. A serial dilution of test compound was dispensed into multiple 96-well black clear bottom plates in triplicate. A serial dilution of complete growth medium containing cobimetinib was prepared at twice the final concentration and 100 μL was dispensed across the test compound titration in triplicate. Three thousand cells are added per well in 100 μL complete growth medium in each 96-well plate. Plates are incubated for 67-72 hours at 37° C., 5% CO2, and 95% humidity. At the end of the incubation, 40 μL of a 440 μM solution of resazurin (Sigma, St. Louis, MO) in PBS is added to each well of the plate and plates are incubated for an additional 5-7 hours at 37° C., 5% CO2, and 95% humidity. Plates are read on a Synergy2 or equivalent reader (Biotek, Winooski VT) using an excitation of 540 nm and an emission of 600 nm. Drug synergy was assessed via BLISS analysis in the Combenefit software (Cancer Research UK Cambridge Institute, Cambridge, UK). Data is analyzed using Prism software (GraphPad, San Diego, CA) to calculate IC50 values. Shifts in test compound IC50 values are reported from top-constrained combination therapy curves.

IC50 (Miapaca-2 cells) | Compound | IC50 (WM3629 cells)
 | Cc1ncc(NC(=O)NCCC2(C)CC2)cc1-c1ccnc(-c2ccnc(NC(=O)C3CC3)c2)n1 [Example 107] | ≤ 100 nM
≤ 100 nM | Cc1ncc(NC(=O)NCCC2(C)CC2)cc1-c1cc(OCCO)nc(-c2ccnc(NC(=O)C3CC3)c2)c1 [Example 113] | 
 | CNC(=O)c1cc(-c2cnnc(-c3cc(NC(=O)NCCC(C)(C)C)c(F)cc3C)c2)ccn1 [Example 119] | 100 to 500 nM
 | COC(=O)Nc1cc(-c2cc(-c3cc(NC(=O)NC4CC(C)(C)C4)cnc3C)cc(OCCO)n2)ccn1 [Example 156] | ≤ 100 nM
≤ 100 nM | Cc1ccc(NC(=O)Nc2cccc(C(F)(F)F)c2)cc1-c1cc(OCCO)nc(N2CCOCC2)c1 [Example 3, 1-(3-(2-(2-hydroxyethoxy)-6-morpholinopyridin-4-yl)-4-methylphenyl)-3-(3-(trifluoromethyl)phenyl)urea] | 
 | COC(=O)Nc1cc(-c2cc(-c3cc(NC(=O)NCCC(C)C)c(F)cc3C)cc(OCCO)n2)ccn1 [Example 115] | ≤ 100 nM
≤ 100 nM | Cc1cc(F)c(NC(=O)NCCC(C)(C)C)cc1-c1cc(OCCO)nc(C2=CCOCC2)c1 [Example 7] | 
